Assays:
[1] = tested on: EndoC-βH1 cells; assay: CellTox Green cytotoxicity assay; format: cell-based
Description: Cytotoxicity Assay. Cell culture and experiments were performed in a 96-well plate in culture media without phenol red (Sigma, Cat. #D4947). Cytotoxicity in cell culture after experimental manipulation was continuously monitored based on the change in the fluorescence intensity of a CellTox Green Dye (Promega, Cat. #G8741) that preferentially stained dead cells with a loss of membrane integrity. The dye was 1:1000 diluted in the culture medium and delivered directly to cells at the same time of dose titrations of Glc+PA, zinc and cytokines. CellTox fluorescence signals were recorded on a FlexStation-3 multi-mode microplate reader with eight replicates at 0, 1, 2, 4, 6, 8, 20, 24, 30, and 48 hr following dye and stressor additions. Viable cells in the control cell culture medium produced no appreciable increases in CellTox fluorescence due to an excellent tolerance of EndoC-βH1 cells to the dye. At the end of experiment, all cells were lysed by adding detergent (DDM) to 0.1% in each well, and the maximum CellTox fluorescence intensity was recoded and used for normalization of the CellTox fluorescence intensity.
(§1) SLC30A8 knockdown. To perform gene silencing by RNA interference, a master mix of Opti-MEM reduced serum-free medium (Gibco, cat. #31985-062) was pre-mixed with 0.4% RNAiMAX transfection reagent (Invitrogen, cat. #13778-100) and 75 nM ZnT8 targeting or scrambled siRNA (OriGene cat. #SR325944). The solution was then incubated at room temperature for 10 min to form siRNA-lipid complexes before 50 μl of the master mix was added to each well in a 96-well plate. Cells resuspended in standard culturing media were added in a 1:1 volume to give 7×10^4 cells per well. After 24 h, the transfection media were replaced with complete culturing media. After additional 2 days, cells were exposed to 1× cytokine cocktail, followed by immunoblotting and cytotoxicity analysis as described above.

[2] = tested on: EndoC-βH1 cells; assay: Total cellular insulin content, HTRF insulin assay; format: cell-based, human; conditions: 24 hr
Description: GSIS and insulin quantification. EndoC-βH1 cells with dose titrations of Glc+PA, zinc or cytokines cocktail in a 96-well plate were switched to a Krebs buffer (Alfa Aesar, cat. #J67795). After cell starvation in Krebs buffer for 1 h, EndoC-βH1 cells were replaced with fresh Krebs buffer containing 20 mM glucose plus 45 μM IBMX. After 45 min, the Krebs buffer was collected for measurement of secreted insulin. Cells were then lysed by 100 μl/well Krebs buffer with 1% DDM. Total insulin content was measured in 100-fold diluted cell lysate, A homogeneous time resolved fluorescence (HTRF) based ultra-sensitive insulin kit (Cisbio, cat. #62IN2PEG) was used to detect both secreted and total insulin as described previously (60).

[3] = tested on: ZnT8; assay: Immunoblotting of ZnT8 (mAb20) in total cell lysate; format: cell-based, human; conditions: 24 hr
Description: Immunoblotting. Cells in a 96-well plate were directly resuspended in 50 μl/well 1× Laemmli Sample Buffer (Bio-Rad cat. #1610737). An aliquot of 15 μl SDS-lysate was loaded onto a precast protein gel for SDS-PAGE and subsequent immunoblotting using the following antibodies directed to ZnT8 (mAb20), tubulin (Invitrogen, Cat. #MA1-83256), calnexin (Proteintech, Cat. #10427-2-AP), BAP31 (Proteintech, Cat. #11200-1-AP), IA2 (Proteintech, Cat. #10584-1-AP), TMED3 (Proteintech, Cat. #21902-1-AP), VAMP2 (Proteintech, Cat. #10135-1-AP), Golgin97 (Proteintech, Cat. #12640-1-AP) and HLA-I (Proteintech, Cat. #15240-1-AP). Protein band intensity was measured using ImageJ, and the numerical value for each stressor-treated protein sample was normalized to the untreated sample on the same immunoblot.
as §1, with “After 24 h, the transfection media were replaced with complete culturing media. After additional 2 days, cells were exposed to 1× cytokine cocktail, followed by immunoblotting and cytotoxicity analysis as described above.” left out

[4] = tested on: endogenous ZnT8 in EndoC-βH1 cells; assay: In-cell ZnT8-ELISA tracking the endogenous ZnT8 level under stressor exposure; format: cell-based, human
Description: Stressor exposures. PA-BSA conjugation was prepared by adding PA powder to a final concentration of 8 mM in 1.6 mM FFA-free BSA (Sigma, Cat. #A7030-50G) pre-dissolved in 135 mM NaCl, 3.6 mM KCl, 0.5 mM MgCl2, and 10 mM HEPES (pH 7.4). The mixture was incubated with gentle stir at 37° C. and then filter-sterilized and stored at 4° C. as described previously (79). When added to the cell culture, the PA-BSA mixture was diluted 13.3-fold with supplement of glucose to make a 1× Glc+PA solution containing 0.6 mM PA and 48 mM Glc. A cytokine cocktail was prepared before each experiment by mixing individual stock solutions of IL-1β, IFN-γ, IL-17, […] at respective concentrations used previously on human islets and EndoC-PHI cells (37). 1× cytokine cocktail in the culture medium contained 5 ng/ml IL-1β, 10 ng/ml TNF-α, 50 ng/ml IFN-γ and 100 ng/ml IL-17 All cytokines were provided by R&D Systems (Minneapolis, MN, USA). […] After a designated exposure period, the endogenous ZnT8 level in each well was analyzed along with stress-induced cytotoxicity, GSIS and cellular insulin content. […]
In-cell ELISAs. […] The HRP reaction was terminated at 5 min by transferring the reaction mixture to a 96-well opaque microplate for chemiluminescence quantification on a FlexStation-3 multi-mode microplate reader.

[5] = molecular target: T1, ZnT8 (Homo sapiens, UniProt Q8IWU4); conditions: cited from earlier work
T1 sequence (Q8IWU4 1-369): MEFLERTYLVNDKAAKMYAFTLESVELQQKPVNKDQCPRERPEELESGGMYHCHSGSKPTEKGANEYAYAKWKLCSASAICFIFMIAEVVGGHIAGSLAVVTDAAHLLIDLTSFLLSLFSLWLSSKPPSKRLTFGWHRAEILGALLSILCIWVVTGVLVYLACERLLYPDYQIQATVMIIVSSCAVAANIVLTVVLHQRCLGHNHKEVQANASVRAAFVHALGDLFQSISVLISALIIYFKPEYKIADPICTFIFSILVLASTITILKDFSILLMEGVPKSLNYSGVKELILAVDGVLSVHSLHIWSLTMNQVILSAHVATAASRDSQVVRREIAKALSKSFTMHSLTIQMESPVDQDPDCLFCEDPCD

[6] = 1 μM epoxomicin with 1× cytokines

CC[C@H](C)[C@H](NC(=O)[C@H]([C@@H](C)CC)N(C)C(C)=O)C(=O)N[C@H](C(=O)N[C@@H](CC(C)C)C(=O)[C@@]1(C)CO1)[C@@H](C)O [epoxomicin]
damaged cells ([1]; combination of epoxomicin and 1× cytokine, 24 hr exposure): 26.8%
cytokine-induced downregulation of insulin [2, 6]: blocked
cytokine-induced downregulation of ZnT8 [3, 6]: blocked
ZnT8 expression ([3]; epoxomicin alone, 1 μM): neither altered ZnT8 expression

[Zn] [zinc]
endogenous ZnT8 level, dose profile ([4]; extracellular zinc from trace amount (EDTA chelation) to 600 μM): biphasic change
zinc concentration at the peak of the biphasic ZnT8 profile ([4]; extracellular zinc up to 600 μM): around 10 μM
zinc toxicity (CellTox, FIG. 2F) ([1]; 600 μM zinc): zinc toxicity was evident
cell integrity (CellTox fluorescence) ([1]; modest zinc exposure (<=200 μM), compared to untreated cells): did not alter the cell integrity
cellular insulin content, dose profile ([2]; increasing stressor concentration): increased the insulin content

B1: mAb20: anti-ZnT8 monoclonal antibody; heavy chain and light chain SEQ ID NOS:32 and 37 (antibody)
heavy: MDMRVPAQLLGLLLLWLRGARCQIQLVQSGPELKKPGETVKISCKASGYIFTNYPMHWVKQAPGKGLKWMGWINTYSGVPTHADDFKGRFAFSLETSANSAFLQINNLKNEDTATYFCTRSRITPTGGYAMDYWGQGTSVTVSSAKTTPPSVYPLAPGSAAQTNSMVTLGCLVKGYFPEPVTVTWNSGSLSSGVHTFPAVLQSDLYTLSSSVTVPSSTWPSETVTCNVAHPASSTKVDKKIVPRDCGCKPCICTVPEVSSVFIFPPKPKDVLTITLTPKVTCVVVDISKDDPEVQFSWFVDDVEVHTAQTQPREEQFNSTFRSVSELPIMHQDWLNGKEFKCRVNSAAFPAPIEKTISKTKGRPKAPQVYTIPPPKEQMAKDKVSLTCMITDFFPEDITVEWQWNGQPAENYKNTQPIMDTDGSYFVYSKLNVQKSNWEAGNTFTCSVLHEGLHNHHTEKSLSHSPGK
light: MDMRVPAQLLGLLLLWLRGARCDVVMTQTPLSLPVSLGDQASISCRSSQSLVHSNGNTYLHWYLQKPGQSPNLLISKVSNRFSGVPERFSGSGSGTDFTLKISRVEAEDLGVYFCSQNTHVPWTFGGGTKLEIKRADAAPTVSIFPPSSEQLTSGGASVVCFLNNFYPKDINVKWKIDGSERQNGVLNSWTDQDSKDSTYSMSSTLTLTKDEYERHNSYTCEATHKTSTSPIVKSFNRNEC
modifications: mAb20 heavy chain; mAb20 light chain
binding affinity [5]: subnanomolar

B2: mAb39: anti-ZnT8 monoclonal antibody; heavy chain and light chain SEQ ID NOS:52 and 57 (antibody)
heavy: MGWSCIMFFLVATATDVHSQVQLQQPGAELVKPGASVKLSCKASGYSFTTYWMHWVKQRPGQGLEWVGDINPRNGRTNYNEKSKSKATLTVDISSSTVYMQVSSLTSEDSAVYYCAIWSGAMDYWGPGTSVTVSSAKTTAPSVYPLAPVCGDTTGSSVTLGCLVKGYFPEPVTLTWNSGSLSSDVHTFPALLQSGLYTLSSSVTVTTWPSQTITCNVAHPASSTKVDKKIEPRGSPTHKPCPPCPAPNLLGGPSVFIFPPKIKDVLMISLSPMVTCVVVDVSEDDPDVHVSWFVNNVEVHTAQTQTHREDYNSTIRVVSALPIQHQDWMSGKEFKCKVNNKALPAPIERTISKPKGPVRAPQVYVLPPPEEEMTKKQVTLTCMITDFMPEDIYVEWTNNGQTELNYKNTEPVLDSDGSYFMYSKLRVEKKNWVERNSYSCSVVHEGLHNHHTTKSFSRSPGK
light: MKLPVRLLVLMFWIPASSSDVVMTQTPLSLPVSLGDQPSISCKSSQSLVHNNGNTYLHWYLQKPGQSPKLLIYKVSNRFSGVPDRFSGSGSGTDFTLKISRVEAEDLGVYFCSQTTHVPPTFGGGTKLEIKRADAAPTVSIFPPSSEQLTSGGASVVCFLNNFYPKDINVKWKIDGSERQNGVLNSWTDQDSKDSTYSMSSTLTLTKDEYERHNSYTCEATHKTSTSPIVKSFNRGEC
modifications: mAb39 heavy chain; mAb39 light chain
binding affinity [5]: subnanomolar
